Tested on: sensory panel
Test: Taste modifier properties in model systems (sensory panel of 15 persons, with/without noseclip)
Assay type: in vivo, human
Settings: 100 ppm
Method: The sensory properties of various compositions comprising a monoester derivative of glucose were tested in various model systems, outlined in Table 14 below. [table] FIGS. 12 to 18 report the sweetness modifier properties of each of the following compounds (tested at 100 ppm in the various mode systems described above): glucose-6-O-octanoate, glucose-6-O-acetate, glucose-6-O-hexanoate, glucose-6-O-decanoate, glucose-6-O-hexadecanoate, glucose-6-O-oleate and glucose-6-O-oleyl derivative. The sensory properties were evaluated by a sensory panel consisting of15 persons, where the properties were evaluated with the subjects wearing a noseclip (With NC), and without a noseclip (Without NC). The subjects evaluate the perceived intensities of different sensory attributes on a linear scale (“0” note intense to “10” very intense) for the corresponding model mixtures without and with the compound at 100ppm. The differences of perceived intensities between the model mixtures with and without the compound are represented for each attribute. A statistical data treatment (unilateral paired student test) is achieved on each attribute to conclude on a significant or not significant taste modulation effect of the compound.

[1] = SG95-sour model system, with and without nose clip, significance 95%
[2] = SG95, with nose clip, significance 95%

CCCCCCCCCCCCCCCC(=O)OC[C@@H](O)[C@@H](O)[C@H](O)[C@@H](O)C=O [glucose-6-O-hexadecanoate]
Sweet taste modulation effect (SG95/sour model system, without nose clip, significance 95%): significant sweet masking effect | Round/thick/mouth coating modulation effect (grapefruit beverage, significance 95%): significant round/thick/mouth coating enhancing effect | Bitter taste modulation effect (with nose clip, significance 95%): significant bitter enhancing effect

CCCCCC(=O)OC[C@@H](O)[C@@H](O)[C@H](O)[C@@H](O)C=O [glucose-6-O-hexanoate]
Licorice taste modulation effect [1]: significant licorice taste masking effect | Sour taste modulation effect [1]: significant sour enhancing effect | Sweet lingering modulation effect [2]: significant sweet and sweet lingering masking effects | Sweet taste modulation effect [2]: significant sweet and sweet lingering masking effects | Sweet taste modulation effect (sweet and sour model system, with and without nose clip, significance 95%): significant sweet enhancing effect

CCCCCCCC/C=C\CCCCCCCC(=O)OC[C@@H](O)[C@@H](O)[C@H](O)[C@@H](O)C=O [glucose-6-O-oleate]
Licorice taste modulation effect [1]: significant licorice taste masking effect | Licorice taste modulation effect (SG95 model system, with and without nose clip, at least 95%): significant licorice taste masking effect | Bitter taste modulation effect (without nose clip, significance 95%): significant bitter enhancing effect | Sweet lingering modulation effect (without nose clip, significance 95%, model system not stated): significant sweet lingering masking effect

CCCCCCCCCC(=O)OC[C@@H](O)[C@@H](O)[C@H](O)[C@@H](O)C=O [glucose-6-O-decanoate]
Licorice taste modulation effect (SG95-sour model system, without nose clip, significance 95%): significant licorice taste masking effect | Taste modulation effects (all the other model systems): no significant effects

glucose-6-O-oleyl derivative
Sweet lingering modulation effect [2]: significant sweet lingering masking effect | Flavor intensity modulation effect (beverage grapefruit, significance 95%): significant flavor intensity masking effect

CC(=O)OC[C@@H](O)[C@@H](O)[C@H](O)[C@@H](O)C=O [glucose-6-O-acetate]
Licorice taste modulation effect (SG95): slight masking effects | Sweet lingering modulation effect (SG95): slight masking effects | Bitterness modulation effect (model system not stated): slight bitterness masking effet | Sweet taste modulation effect (sucrose model mixture): slights enhancing sweetness effects | Taste modulation effects overall (tasted model systems): no significant modulation effects
